Converted amounts (≈) assume the structure as drawn.
What was measured:
[1] = target: human Fibroblast activation protein alpha (hFAP) (Homo sapiens (Human), UniProt Q12884); test: hFAP inhibition assay (tight binders); assay type: biochemical; conditions: tight-binder format, Ala-Pro-AMC 20 μM, 2.5 h incubation; n = 1 or geometric mean (n = 5-10)
Method: Data were analyzed in Genedata Screener®.

[2] = target: Prolyl Oligopeptidase (hPREP) (Homo sapiens (Human), UniProt P48147); test: hPREP inhibition assay; assay type: biochemical; conditions: hPREP 0.6 nM, Z-Gly-Pro-amino-methylcoumarin 50 μM; read-out: PREP IC50
Method: Compounds were tested in a biochemical inhibition assay using Prolyl endopeptidase, Prolyl Oligopeptidase (hPREP) enzyme at 0.6 nM FAC (R&D Systems, 4308-SE) and the substrate Z-Gly-Pro-amino-methylcoumarin (Bachem, I-1145) at 50 μM FAC. 384 Low volume black plates (Greiner #784076) were used. […] 4 μL, 100 μM substrate solution (25 mM Tris HCl, 250 mM NaCl, 0.01% Triton X-100, 5 mM Glutathione, pH 7.5) was added to each well. Plates were centrifuged at 1000 rpm and incubated for 20 min at rt in dark. […] Data were analyzed in Genedata Screener®.

[3] = Metabolic stability in human liver microsomes (HLM); assay type: in vitro ADME
Method: Metabolic stability in HLM was measured as described in J Comput Aided Mol Des 2015, 29, 795.

[4] = test system: Rat Hepatocytes (rHep); test: Metabolic stability in rat hepatocytes (rHep); assay type: in vitro ADME
Method: Metabolic stability in rat hepatocytes was measured as described in J Comput Aided Mol Des 2015, 29, 795.

[5] = test system: Human Hepatocytes (hHep); test: Metabolic stability in human hepatocytes (hHep); assay type: in vitro ADME
Method: Metabolic stability in human hepatocytes was measured as described in Xenobiotica 2010, 40, 637.

[6] = Kinetic solubility; assay type: physicochemical; conditions: kinetic from dmso stock
Method: Kinetic solubility was measured as described in Comput Aided Mol Des 2015, 29, 795.

[7] = target: hFAP (Homo sapiens (Human), UniProt Q12884);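 also: fluorescence read after incubating enzyme with substrate at room temperature, IC50 fitted from percent inhibition against log concentration with a one-site model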
Method: Compounds were tested in a biochemical inhibition assay using hFAP enzyme at 0.24 nM FAC (Proteros, 38-760 (PR-0071)) and the substrate Ala-Pro-AMC (ARI-3144) at 20 μM FAC. 384 low volume black plates (Greiner #784076) were used. 4 μL, 0.48 nM enzyme solution (100 mM Tris HCl, 100 mM NaCl, 0.05% Chaps, pH 7.4) was added to 40 nL compounds (in DMSO) at 10 CR, 3-fold dilution series from 50 μM FAC. Plates were incubated for 15 min at rt in dark. 4 μL, 40 μM substrate solution (100 mM Tris HCl, 100 mM NaCl, 0.05% Chaps, pH 7.4) was added to each well. Plates were centrifuged at 1000 rpm and incubated for 30 min at rt in dark. The plates were read on a PHERAstar® reader with excitation 340 nm and emission 460 nm. Data were analyzed in Genedata Screener®. IC50 values were determined by plotting % inhibition versus log compound concentration and using a one site dose response model.

[8] = target: hFAP (M39-A757) (Homo sapiens (Human), UniProt Q12884)
Sequence of hFAP (M39-A757) (Q12884 39-757): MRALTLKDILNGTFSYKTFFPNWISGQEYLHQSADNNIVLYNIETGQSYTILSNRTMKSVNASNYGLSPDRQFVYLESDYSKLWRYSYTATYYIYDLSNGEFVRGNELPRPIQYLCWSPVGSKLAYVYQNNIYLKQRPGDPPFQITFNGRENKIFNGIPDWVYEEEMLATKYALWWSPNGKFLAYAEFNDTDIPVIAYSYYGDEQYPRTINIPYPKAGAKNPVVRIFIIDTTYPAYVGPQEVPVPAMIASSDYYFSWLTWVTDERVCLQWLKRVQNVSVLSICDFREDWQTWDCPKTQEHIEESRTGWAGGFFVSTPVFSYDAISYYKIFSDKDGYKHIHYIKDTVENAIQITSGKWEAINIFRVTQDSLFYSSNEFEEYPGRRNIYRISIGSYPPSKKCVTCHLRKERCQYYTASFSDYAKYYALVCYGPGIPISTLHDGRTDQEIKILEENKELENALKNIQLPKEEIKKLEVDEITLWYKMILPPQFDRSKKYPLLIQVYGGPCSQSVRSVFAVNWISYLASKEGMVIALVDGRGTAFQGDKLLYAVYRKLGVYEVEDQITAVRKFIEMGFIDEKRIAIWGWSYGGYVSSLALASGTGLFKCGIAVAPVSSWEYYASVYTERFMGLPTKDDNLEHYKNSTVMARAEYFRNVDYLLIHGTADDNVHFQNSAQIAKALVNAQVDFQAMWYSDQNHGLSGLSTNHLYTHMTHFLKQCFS
Method: Compounds were tested in a direct binding assay using 8K surface plasmon resonance biosensor (GE Healthcare) at 20° C. Immobilization of hFAP (M39-A757) on a CMD200M sensor chip (Xantec) was performed using standard amine coupling procedure in immobilization buffer (10 mM HEPES, 150 mM NaCl, 0.05% Tween20, pH 7.4). The surface was washed with 10 mM NaOH, 1M NaCl before being activated with EDC/NHS (GE Healthcare), followed by immobilization of hFAP (in 10 mM Acetate pH 5.0). Finally, the surface was deactivated by ethanolamine. Immobilization levels of hFAP were around 4000-6000 RU. The reference spot was treated as described, omitting the injection of hFAP. Compound concentration series were injected over the immobilized protein in increasing concentrations (2-500 nM) using single cycle kinetics in running buffer (20 mM TRIS, 150 mM NaCl, 0.05% Tween20, 1% DMSO, pH 7.4). Interaction models were fitted globally to the experimental traces, enabling determination of kon, koff and Kd.

Sequence of Prolyl Oligopeptidase (hPREP) (P48147 whole entry): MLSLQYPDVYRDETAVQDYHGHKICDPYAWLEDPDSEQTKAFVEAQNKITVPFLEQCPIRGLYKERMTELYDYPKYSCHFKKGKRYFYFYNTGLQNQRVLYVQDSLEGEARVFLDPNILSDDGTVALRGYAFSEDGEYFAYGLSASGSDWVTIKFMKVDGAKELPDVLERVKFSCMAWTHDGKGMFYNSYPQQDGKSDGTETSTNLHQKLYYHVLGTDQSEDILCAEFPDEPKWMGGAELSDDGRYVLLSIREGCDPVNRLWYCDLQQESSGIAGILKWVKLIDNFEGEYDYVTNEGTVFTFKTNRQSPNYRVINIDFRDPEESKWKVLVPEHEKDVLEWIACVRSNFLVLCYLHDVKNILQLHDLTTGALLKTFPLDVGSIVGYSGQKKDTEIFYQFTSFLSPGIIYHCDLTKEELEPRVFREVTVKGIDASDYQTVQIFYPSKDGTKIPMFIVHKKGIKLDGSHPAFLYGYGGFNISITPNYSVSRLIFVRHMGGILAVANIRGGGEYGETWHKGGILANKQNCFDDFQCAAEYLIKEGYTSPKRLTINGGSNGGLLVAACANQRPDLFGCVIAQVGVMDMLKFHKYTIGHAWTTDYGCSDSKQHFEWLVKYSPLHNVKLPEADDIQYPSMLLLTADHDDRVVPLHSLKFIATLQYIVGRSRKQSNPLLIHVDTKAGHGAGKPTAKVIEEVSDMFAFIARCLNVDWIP
Sequence of hFAP (Q12884 38-760): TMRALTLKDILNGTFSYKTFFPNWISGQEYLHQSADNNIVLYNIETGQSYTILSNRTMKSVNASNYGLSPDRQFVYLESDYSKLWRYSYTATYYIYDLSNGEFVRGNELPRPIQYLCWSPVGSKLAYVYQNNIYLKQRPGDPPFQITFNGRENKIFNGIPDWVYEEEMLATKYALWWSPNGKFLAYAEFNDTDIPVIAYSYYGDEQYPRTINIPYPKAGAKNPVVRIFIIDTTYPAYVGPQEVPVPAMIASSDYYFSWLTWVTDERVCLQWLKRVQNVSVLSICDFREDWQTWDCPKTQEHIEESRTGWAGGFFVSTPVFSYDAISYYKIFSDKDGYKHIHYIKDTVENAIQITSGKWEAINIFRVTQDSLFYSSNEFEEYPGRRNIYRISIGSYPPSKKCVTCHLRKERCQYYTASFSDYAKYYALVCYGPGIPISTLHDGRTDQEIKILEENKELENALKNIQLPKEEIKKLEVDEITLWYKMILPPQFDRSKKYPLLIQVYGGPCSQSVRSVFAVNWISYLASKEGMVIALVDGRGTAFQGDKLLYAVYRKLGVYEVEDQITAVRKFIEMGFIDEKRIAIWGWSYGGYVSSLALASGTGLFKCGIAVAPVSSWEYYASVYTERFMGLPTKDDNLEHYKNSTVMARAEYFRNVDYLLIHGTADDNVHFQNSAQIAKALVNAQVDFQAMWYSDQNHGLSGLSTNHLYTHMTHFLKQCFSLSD
Sequence of human Fibroblast activation protein alpha (hFAP) (Q12884 38-760): as above

| IC50 [1] [nM] | IC50 [2] [nM] | microsomal CLint [3] [µL/min/mg] | rHeps CLint [4] [μL/min/1E6] | hHep CLint [5] [μL/min/1E6] | solubility [6] [µM] | IC50 [7] [nM] | Kd [8] [nM] | SMILES |
| --- | --- | --- | --- | --- | --- | --- | --- | --- |
| 20 | 44000 | < 3 | 1.3 | <1 | 890 (≈ 314 µg/mL) | 71 |  | Cc1cc(C(=O)NCC(=O)N2[C@H](C#N)C[C@@H]3C[C@@H]32)c2ccc(F)cc2n1 [Example 8, N-(2-((1S,3S,5S)-3-Cyano-2-azabicyclo[3.1.0]hexan-2-yl)-2-oxoethyl)-7-fluoro-2-methylquinoline-4-carboxamide] |
| 0.4 | > 50000 | < 3 | 5.3 |  | 970 (≈ 342 µg/mL) | 2.2 | 17 | N#C[C@@H]1C[C@@H]2C[C@@H]2N1C(=O)CNC(=O)c1ccnc2ccc(CF)cc12 [Example 11, N-(2-((1S,3S,5S)-3-Cyano-2-azabicyclo[3.1.0]hexan-2-yl)-2-oxoethyl)-6-(fluoromethyl)quinoline-4-carboxamide] |
| 0.75 | > 50000 | 100 | 20 |  | 300 (≈ 114 µg/mL) | 3.8 | 13 | CC(C)(F)c1ccc2nccc(C(=O)NCC(=O)N3[C@H](C#N)C[C@@H]4C[C@@H]43)c2c1 [Example 12, N-(2-((1S,3S,5S)-3-Cyano-2-azabicyclo[3.1.0]hexan-2-yl)-2-oxoethyl)-6-(2-fluoropropan-2-yl)quinoline-4-carboxamide] |
| 0.86 | > 50000 | < 3 | 2 | <1 | > 1000 | 3.8 |  | CC(C)(O)c1ccc2nccc(C(=O)NCC(=O)N3[C@H](C#N)C[C@@H]4C[C@@H]43)c2c1 [Example 13, N-(2-((1S,3S,5S)-3-Cyano-2-azabicyclo[3.1.0]hexan-2-yl)-2-oxoethyl)-6-(2-hydroxypropan-2-yl)quinoline-4-carboxamide] |
| 1.1 | > 50000 | 30 | 9.4 | 3.3 | > 1000 | 16 |  | COC(C)c1ccc2nccc(C(=O)NCC(=O)N3[C@H](C#N)C[C@@H]4C[C@@H]43)c2c1 (stereo partly drawn) [Example 15, N-(2-((1S,3S,5S)-3-Cyano-2-azabicyclo[3.1.0]hexan-2-yl)-2-oxoethyl)-6-(1-methoxyethyl)quinoline-4-carboxamide] |
| 0.81 | > 50000 | 72 | 21 |  | > 1000 | 4.2 | 20 | COC(C)(C)c1ccc2nccc(C(=O)NCC(=O)N3[C@H](C#N)C[C@@H]4C[C@@H]43)c2c1 [Example 16, N-(2-((1S,3S,5S)-3-Cyano-2-azabicyclo[3.1.0]hexan-2-yl)-2-oxoethyl)-6-(2-methoxypropan-2-yl)quinoline-4-carboxamide] |
| 0.38 | > 50000 | 110 | 21 |  | 340 (≈ 142 µg/mL) | 1.7 | 8.5 | N#C[C@@H]1C[C@@H]2C[C@@H]2N1C(=O)CNC(=O)c1ccnc2ccc(COC(F)(F)F)cc12 [Example 17, N-(2-((1S,3S,5S)-3-Cyano-2-azabicyclo[3.1.0]hexan-2-yl)-2-oxoethyl)-6-((trifluoromethoxy)methyl)quinoline-4-carboxamide] |
| 0.97 | > 50000 | 13 | 70 |  | 56 (≈ 21.3 µg/mL) | 2.8 | 10 | CC(C)(F)c1ccc2c(C(=O)NCC(=O)N3[C@H](C#N)C[C@@H]4C[C@@H]43)ccnc2c1 [Example 21, N-(2-((1S,3S,5S)-3-Cyano-2-azabicyclo[3.1.0]hexan-2-yl)-2-oxoethyl)-7-(2-fluoropropan-2-yl)quinoline-4-carboxamide] |
| 0.51 | > 50000 | < 5.8 | 2.9 | <1 | > 1000 | 1.5 |  | N#C[C@@H]1C[C@@H]2C[C@@H]2N1C(=O)CNC(=O)c1ccnc2cc(C(F)F)ccc12 [Example 22, N-(2-((1S,3S,5S)-3-Cyano-2-azabicyclo[3.1.0]hexan-2-yl)-2-oxoethyl)-7-(difluoromethyl)quinoline-4-carboxamide] |
| 0.3 | > 45000 | < 3 | 2.7 |  | > 1000 | 1.2 | 8.2 | N#C[C@@H]1C[C@@H]2C[C@@H]2N1C(=O)CNC(=O)c1ccnc2cc(CF)ccc12 [Example 24, N-(2-((1S,3S,5S)-3-Cyano-2-azabicyclo[3.1.0]hexan-2-yl)-2-oxoethyl)-7-(fluoromethyl)quinoline-4-carboxamide] |
| 2 | > 50000 | 21 | 7.2 | 3.1 | > 1000 | 6 |  | COC(C)c1ccc2c(C(=O)NCC(=O)N3[C@H](C#N)C[C@@H]4C[C@@H]43)ccnc2c1 (stereo partly drawn) [Example 27, N-(2-((1S,3S,5S)-3-Cyano-2-azabicyclo[3.1.0]hexan-2-yl)-2-oxoethyl)-7-(1-methoxyethyl)quinoline-4-carboxamide] |
| 1.3 | > 50000 | 36 | 5.2 |  | > 1000 | 4.6 | 7.8 | COC(C)(C)c1ccc2c(C(=O)NCC(=O)N3[C@H](C#N)C[C@@H]4C[C@@H]43)ccnc2c1 [Example 28, N-(2-((1S,3S,5S)-3-Cyano-2-azabicyclo[3.1.0]hexan-2-yl)-2-oxoethyl)-7-(2-methoxypropan-2-yl)quinoline-4-carboxamide] |
| 0.3 | > 50000 | 8.9 | 81 |  | 23 (≈ 9.62 µg/mL) | 1.3 | 11 | N#C[C@@H]1C[C@@H]2C[C@@H]2N1C(=O)CNC(=O)c1ccnc2cc(COC(F)(F)F)ccc12 [Example 29, N-(2-((1S,3S,5S)-3-Cyano-2-azabicyclo[3.1.0]hexan-2-yl)-2-oxoethyl)-7-((trifluoromethoxy)methyl)quinoline-4-carboxamide] |
| 1.2 | > 50000 | 160 | 20 | 15 | 850 (≈ 322 µg/mL) | 4.1 |  | CC(C)Oc1ccc2nccc(C(=O)NCC(=O)N3[C@H](C#N)C[C@@H]4C[C@@H]43)c2c1 [Example 34, N-(2-((1S,3S,5S)-3-Cyano-2-azabicyclo[3.1.0]hexan-2-yl)-2-oxoethyl)-6-isopropoxyquinoline-4-carboxamide] |
| 0.097 | > 50000 | 90 | 16 | 12 | 590 (≈ 230 µg/mL) | 0.64 |  | N#C[C@@H]1C[C@@H]2C[C@@H]2N1C(=O)CNC(=O)c1ccnc2ccc(OCC3CC3)cc12 [Example 35, N-(2-((1S,3S,5S)-3-Cyano-2-azabicyclo[3.1.0]hexan-2-yl)-2-oxoethyl)-6-(cyclopropylmethoxy)quinoline-4-carboxamide] |
| 0.58 | > 50000 | 180 | 92 |  | 210 (≈ 90 µg/mL) | 3.4 | 4.3 | N#C[C@@H]1C[C@@H]2C[C@@H]2N1C(=O)CNC(=O)c1ccnc2cc(C3(C(F)(F)F)CC3)ccc12 [Example 36, N-(2-((1S,3S,5S)-3-Cyano-2-azabicyclo[3.1.0]hexan-2-yl)-2-oxoethyl)-7-(1-(trifluoromethyl)cyclopropyl)quinoline-4-carboxamide] |
| 0.56 | > 50000 | 260 | 67 |  | 820 (≈ 307 µg/mL) | 2.9 | 11 | CC1(c2ccc3nccc(C(=O)NCC(=O)N4[C@H](C#N)C[C@@H]5C[C@@H]54)c3c2)CC1 [Example 43, N-(2-((1S,3S,5S)-3-Cyano-2-azabicyclo[3.1.0]hexan-2-yl)-2-oxoethyl)-6-(1-methylcyclopropyl)quinoline-4-carboxamide] |
